Reference: PMC6272905, “In Vitro and In Vivo Characterization of Selected Fluorine-18 Labeled Radioligands for PET Imaging of the Dopamine D3 Receptor” (Molecules, 2016)
“And” between values parts separate entries of the source, which are not always exact repeats. Equal entries are not always repeated.

Assays:
[1] = Binding to proteins in human plasma in vitro; assay type: in vitro ADME; settings: human vs rat plasma
Method: The free fraction in vitro was determined by adding the respective radioligand (100 kBq) to plasma or CSF (200 µL) and mixed vigorously. Aliquots of 20–50 µL were transferred to size exclusion chromatography columns (MicroSpin G-50; GE Healthcare GmbH, Solingen, Germany, centrifuged for two min at 2000 rpm, and the radioactivity in the filtrate and in the resin were measured in the gamma-counter. Three independent experiments were performed in triplicates.

[2] = parameters: method as in PMID 24339325, PMID 26707848; settings: experimental, pH 7.4, n = 6, previously reported; cited from earlier work
[3] = biological target: T1, D3 receptor in rat brain (Rattus norvegicus, UniProt P19020); test: Saturation binding assay on rat brain sections; settings: for Bmax: rat brain sections, n = 4
T1 construct: from tissue; host or cells: brain cryosections (12 µm) of male Wistar rats

[4] = biological target: T2, P-gp (Homo sapiens, UniProt P08183); test: P-gp inhibition assay (cellular uptake) in Caco-2 cells; assay type: cell-based
T2 construct: endogenous in cells; host or cells: Caco-2
Method: EA.hy926 cells were seeded in culture medium at confluency the day prior to experiment or in case of the Caco-2 cells two days prior to experiment in 24-multiwell plates (Greiner Bio-One International GmbH, Kremsmünster, Austria). On the day of the experiment the culture medium was removed and the cells were washed once with PBS (500 µL). Culture medium supplemented with cyclosporine-A (5 µM for EA.hy926 and 10 µM for Caco-2) was added and the cells were incubated at 37 °C for 30 min. Afterwards 1 MBq of [^18F]2b was added to each well and incubated for further 30, 60 and 90 min. After incubation cells were washed with ice cold PBS (500 µL) and lysated with 0.1 M NaOH. The medium and lysates were analysed in the gamma-counter. To identify cyclosporine-A induced accumulation the experiment was also performed using culture medium lacking cyclosporine-A. As positive control the experiment was performed with ^99mTc-MIBI (100 kBq/well), a known P-gp substrate. To determine the lowermost concentration with which a maximum effect was obtained, cyclosporine-A was applied in a range of 0–50 µM and observed in a time frame of 30–120 min for both cell lines.

[5] = tested on: dopamine D3 receptor; test: Ex vivo autoradiography of rat brain sections; assay type: in vivo
Method: Male Sprague Dawley rats (250–300 g) were injected with 20 MBq of [^18F]2b intra-venous under isoflurane (4%) anesthesia. For blocking studies BP897 (1 mg/kg) was administerd 30 min prior to radioligand injection. Rats were sacrificed by decapitation 30 min post radioligand injection and brains were removed and frozen in cooled hexane at −70 °C. Coronal and horizontal brain sections (12 µm) were cut on a cryostat microtome (HM550, Microm) and thaw-mounted on covered glass slides (Histobond®). The glass slides were placed on a phosphor screen (Fujitsu) over night. The screens were analyzed with a DUERR Medical HD-CR 35 Bio (Raytest) and evaluated using the software AIDA image analyzer (Raytest). Afterwards the sections were HE stained and ascribed to figures in the rat brain atlas. Binding in the regions of interest were evaluated as ratio of the activity in the region of interest through background activity. Binding in the cerebral matter of the respective sections was defined as background activity.

[6] = In vivo stability in blood of living rats (radiometabolites); parameters: species or system rat
Method: For the determination of radioligand stability in vivo and detection of radiometabolites the respective radiotracer (15 MBq) was administered intravenous to male Sprague Dawley rats (200–250 g) under isoflurane anesthesia. Blood samples were drawn intravenous after 5, 15 and 30 min and centrifuged for 5 min at 2000 rpm in heparin-coated vials. An aliquot of 50 µL was taken from the supernatant and added to an equal volume of water (10% TFA). The protein precipitate was centrifuged off for 5 min at 25,000 rpm and an aliquot of the supernatant was fractioned with HPLC (Chromolith RP-18e, 100 mm × 4.6 mm, 4 mL/min, solvent A: water (0.1% TFA), solvent B: acetonitrile (0.1% TFA), gradient A/B: 90:10 to 0:100 in 15 min, λ = 214 nm). The fractions were then analyzed in the gamma-counter. To identify the fractions containing the intact radioligand, the retention time and fractioning of the respective tracer was previously assessed. Two independent experiments were performed.

[7] = lateral ventricle, coronal section (Interaural 4.70, Bregma −4.30)
[8] = third ventricle, horizontal section (Interaural 5.90, Bregma −4.10)

T1 sequence (P19020 whole entry): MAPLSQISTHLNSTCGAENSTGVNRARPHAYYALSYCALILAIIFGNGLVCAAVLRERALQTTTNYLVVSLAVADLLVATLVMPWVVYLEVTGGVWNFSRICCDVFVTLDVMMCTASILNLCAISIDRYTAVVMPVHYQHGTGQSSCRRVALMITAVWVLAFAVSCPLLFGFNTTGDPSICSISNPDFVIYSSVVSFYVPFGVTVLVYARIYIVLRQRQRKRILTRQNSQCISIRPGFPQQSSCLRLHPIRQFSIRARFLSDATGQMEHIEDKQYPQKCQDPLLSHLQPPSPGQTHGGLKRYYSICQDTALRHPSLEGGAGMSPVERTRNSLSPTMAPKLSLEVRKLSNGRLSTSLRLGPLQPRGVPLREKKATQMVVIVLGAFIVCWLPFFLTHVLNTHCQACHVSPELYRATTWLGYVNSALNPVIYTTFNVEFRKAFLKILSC
T2 sequence (P08183 whole entry): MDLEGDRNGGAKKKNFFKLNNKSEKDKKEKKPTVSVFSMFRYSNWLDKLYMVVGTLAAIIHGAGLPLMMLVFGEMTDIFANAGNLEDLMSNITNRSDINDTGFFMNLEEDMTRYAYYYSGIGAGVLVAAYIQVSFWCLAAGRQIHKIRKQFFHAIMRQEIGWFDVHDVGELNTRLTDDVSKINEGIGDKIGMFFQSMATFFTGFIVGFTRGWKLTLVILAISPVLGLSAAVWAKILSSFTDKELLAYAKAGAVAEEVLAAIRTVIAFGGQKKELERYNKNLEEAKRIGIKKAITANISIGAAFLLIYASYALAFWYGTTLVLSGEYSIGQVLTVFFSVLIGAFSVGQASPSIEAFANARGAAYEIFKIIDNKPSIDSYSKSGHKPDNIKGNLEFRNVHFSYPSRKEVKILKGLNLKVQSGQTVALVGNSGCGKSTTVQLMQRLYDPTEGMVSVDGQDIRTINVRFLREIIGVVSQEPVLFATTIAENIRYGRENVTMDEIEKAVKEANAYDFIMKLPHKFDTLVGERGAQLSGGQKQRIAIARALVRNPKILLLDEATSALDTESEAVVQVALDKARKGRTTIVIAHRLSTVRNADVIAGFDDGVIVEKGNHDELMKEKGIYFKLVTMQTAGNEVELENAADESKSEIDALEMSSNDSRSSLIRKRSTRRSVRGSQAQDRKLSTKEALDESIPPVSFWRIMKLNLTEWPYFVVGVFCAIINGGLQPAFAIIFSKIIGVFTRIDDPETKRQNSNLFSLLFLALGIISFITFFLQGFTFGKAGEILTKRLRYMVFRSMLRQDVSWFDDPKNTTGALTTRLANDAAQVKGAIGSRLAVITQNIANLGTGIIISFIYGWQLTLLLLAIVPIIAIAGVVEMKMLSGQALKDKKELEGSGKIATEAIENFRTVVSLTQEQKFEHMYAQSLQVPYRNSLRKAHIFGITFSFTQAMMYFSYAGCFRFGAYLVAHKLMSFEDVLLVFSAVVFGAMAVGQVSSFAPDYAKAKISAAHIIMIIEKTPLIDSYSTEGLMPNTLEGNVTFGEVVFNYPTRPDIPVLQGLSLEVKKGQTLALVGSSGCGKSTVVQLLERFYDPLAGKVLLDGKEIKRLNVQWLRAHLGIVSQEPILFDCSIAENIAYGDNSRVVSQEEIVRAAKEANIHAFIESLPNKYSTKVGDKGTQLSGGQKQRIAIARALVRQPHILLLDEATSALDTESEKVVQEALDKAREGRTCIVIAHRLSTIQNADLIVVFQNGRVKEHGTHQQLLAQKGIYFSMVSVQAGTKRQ

## COc1ccccc1N1CCN(CCCCNC(=O)/N=N/c2ccc([18F])cc2)CC1 [[^18F]2b]
[1]
  binding to human plasma higher than in rat plasma: 20%–30%
[2]
  Log D7.4: 2.10 ± 0.10
[3]; all three regions
  Kd: ~0.1 nM
[3]; caudate putamen
  Kd: 0.08 ± 0.06 nM
[3]; caudate putamen (striatum)
  Bmax: 16.58 pmol/g and 16.58 ± 1.63 pmol/g
[3]; islands of calleja
  Kd: 0.1 ± 0.01 nM
  Bmax: 20.38 pmol/g and 20.38 ± 2.67 pmol/g
[3]; nucleus accumbens
  Kd: 0.11 ± 0.07 nM
  Bmax: 19.54 pmol/g and 19.54 ± 1.85 pmol/g
[4]
  percentage inside the cells: 10%
[4]; with vs without cyclosporin-A
  influence of cyclosporin-A on cellular uptake: did not increase the uptake
[5]; lateral and third ventricle, section (Interaural 5.70, Bregma −3.30)
  ratio ROI/background: 22
[5]; lateral and third ventricle, sections (Interaural 10.60, Bregma 1.60) and (Interaural 7.70, Bregma −1.30)
  displacement by BP897: no displacement
[5]; lateral and third ventricle, sections (Interaural 10.60, Bregma 1.60) and (Interaural 7.70, Bregma −1.30), 30 min p.i.
  ratio ROI/background: ~15
[5]; [7]
  displacement with BP897: 60%
  ratio ROI/background: ~30
[5]; section (Interaural 5.70, Bregma −3.30)
  displacement by BP897: 40%–50%
[5]; [8]
  displacement through BP897: 50%
  ratio ROI/background: 32
[6]; 5 min after i.v. injection
  intact tracer in rat plasma: 49%
[6]; 30 min after i.v. injection
  intact tracer in rat plasma: 37%
